Here are results for 2 substances from US7018836B1, “P-TEFb compositions, methods and screening assays” (priority 1996, dated 2006).

In data set [1] the test system is RNA polymerase II. Description: Kinase assay of recombinant P-TEFb subunits with RNA polymerase II as substrate (Table 1). The class given is biochemical, Drosophila. Here is the method:
0.4 μl of purified RNA polymerase II and various protein samples were mixed in 18 μl of 55 mM HMK. The reaction was then initiated by the addition of 2 μl of a solution containing 2 μCi of [γ-^32P]ATP (ICN) and unlabeled ATP at 10 μM, or only unlabeled ATP at concentrations from 1 to 100 μM or other NTPs or dNTPs at concentrations of 1 to 100 μM. Reactions were incubated for the indicated times at 23° C. and then terminated with SDS loading buffer. Samples were analyzed on a 6–15% SDS polyacrylamide gel which was silver stained, dried and subjected to autoradiography if the assay contained label.
Using the CTD Kinase assay, as previously described in Example 2, Section A.7, both HBL1-1 (SEQ ID NO:45), HBL2(SEQ ID NO:47) and HBL3 (SEQ ID NO:50) were substituted for the large subunit in the Drosophila transcription system. Alone “PITARLE” has little kinase activity and no detectable activity in transcription.

Data set [2] concerns transcription in Drosophila extract depleted of P-TEFb. Description: Transcription activity of recombinant protein added into Drosophila extract depleted of P-TEFb (Table 1). Type of data set: biochemical.
The target of data set [3] is T1, RNA polymerase II (Drosophila melanogaster, UniProt P04052).
T1 construct: endogenous in cells; host or cells: Drosophila Kc cell nuclear extract; washed early elongation complexes on immobilized actin A2 template
T1 sequence (P04052 whole entry): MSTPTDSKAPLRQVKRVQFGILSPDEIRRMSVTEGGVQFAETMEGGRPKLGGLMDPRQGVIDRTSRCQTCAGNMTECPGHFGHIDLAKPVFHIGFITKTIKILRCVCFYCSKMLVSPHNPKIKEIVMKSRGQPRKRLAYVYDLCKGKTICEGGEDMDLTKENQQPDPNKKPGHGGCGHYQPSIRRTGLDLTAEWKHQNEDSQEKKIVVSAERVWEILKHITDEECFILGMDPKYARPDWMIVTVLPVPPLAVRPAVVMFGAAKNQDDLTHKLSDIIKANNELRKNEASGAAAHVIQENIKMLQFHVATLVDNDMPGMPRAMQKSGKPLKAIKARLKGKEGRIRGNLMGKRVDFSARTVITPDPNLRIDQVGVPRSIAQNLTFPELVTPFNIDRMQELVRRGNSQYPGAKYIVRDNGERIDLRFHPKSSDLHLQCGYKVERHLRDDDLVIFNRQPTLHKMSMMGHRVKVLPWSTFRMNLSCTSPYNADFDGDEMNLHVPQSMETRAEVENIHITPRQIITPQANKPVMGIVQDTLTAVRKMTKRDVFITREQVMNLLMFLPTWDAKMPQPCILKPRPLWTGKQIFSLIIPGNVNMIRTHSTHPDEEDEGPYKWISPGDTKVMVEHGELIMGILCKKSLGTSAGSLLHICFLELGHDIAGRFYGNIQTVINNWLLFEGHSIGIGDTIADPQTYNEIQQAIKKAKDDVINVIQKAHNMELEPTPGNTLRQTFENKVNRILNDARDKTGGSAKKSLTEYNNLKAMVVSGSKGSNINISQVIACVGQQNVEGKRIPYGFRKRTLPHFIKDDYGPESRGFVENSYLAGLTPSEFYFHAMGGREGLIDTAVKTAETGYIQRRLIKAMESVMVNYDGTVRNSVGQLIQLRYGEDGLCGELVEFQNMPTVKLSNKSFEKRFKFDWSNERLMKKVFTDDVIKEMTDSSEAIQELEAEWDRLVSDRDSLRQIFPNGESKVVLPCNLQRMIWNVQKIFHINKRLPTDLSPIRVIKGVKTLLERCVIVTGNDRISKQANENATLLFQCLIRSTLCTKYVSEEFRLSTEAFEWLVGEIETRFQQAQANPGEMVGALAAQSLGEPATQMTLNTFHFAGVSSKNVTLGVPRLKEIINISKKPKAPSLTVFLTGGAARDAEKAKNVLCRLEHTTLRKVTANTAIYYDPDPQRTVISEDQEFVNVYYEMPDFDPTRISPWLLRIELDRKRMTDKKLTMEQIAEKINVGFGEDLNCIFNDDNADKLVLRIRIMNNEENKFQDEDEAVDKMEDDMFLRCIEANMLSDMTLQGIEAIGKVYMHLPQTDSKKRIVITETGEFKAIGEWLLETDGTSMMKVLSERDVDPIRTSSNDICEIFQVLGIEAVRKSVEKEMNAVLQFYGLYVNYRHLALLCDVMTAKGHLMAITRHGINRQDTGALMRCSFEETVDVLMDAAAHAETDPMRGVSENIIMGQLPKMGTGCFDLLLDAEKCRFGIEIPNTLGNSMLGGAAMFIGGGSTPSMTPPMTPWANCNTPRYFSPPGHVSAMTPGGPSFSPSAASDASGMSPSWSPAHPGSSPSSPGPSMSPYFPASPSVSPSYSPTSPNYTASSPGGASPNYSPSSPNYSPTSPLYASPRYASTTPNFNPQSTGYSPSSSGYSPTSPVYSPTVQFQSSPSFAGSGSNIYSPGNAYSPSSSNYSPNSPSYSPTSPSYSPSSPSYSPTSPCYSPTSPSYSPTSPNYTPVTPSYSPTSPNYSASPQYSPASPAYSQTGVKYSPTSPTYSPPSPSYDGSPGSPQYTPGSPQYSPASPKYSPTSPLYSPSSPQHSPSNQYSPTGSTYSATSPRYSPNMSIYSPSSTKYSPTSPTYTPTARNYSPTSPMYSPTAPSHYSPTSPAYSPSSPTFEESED
In words: Immobilized template add-back assay, elongation by isolated early elongation complexes. Type of data set: biochemical. The following applies: added prior to the chase. How it is done:
Since P-TEF was first identified using an immobilized template assay, the ability of HeLa NE to generate DRB-sensitive elongation complexes when added back to isolated EECs was examined. Drosophila actin A2 DNA template and Kc cell NE was used to form EECs containing Drosophila RNA polymerase II. An immobilized A2 template was preincubated with Kc cell NE and then pulsed for 30 sec with [α-^32P] CTP. The resulting EECs were isolated, and washed. Only short transcripts were produced during the pulse and the labeled […] were removed by the washing protocol. […] However, addition of Kc cell NE to the chase, allowed some EECs to enter productive elongation and make long DRB-sensitive transcripts. When a HeLa NE that was capable of producing high levels of DRB-sensitive transcription was added to the chase, DRB-sensitive transcripts were also produced.

Consider “PITALRE: human P-TEFb small (kinase) subunit, SEQ ID NO:6, HIS-tagged, baculovirus expressed”, for which, in the data set on RNA polymerase II [1] (RNA polymerase II as substrate), the Kinase activity entry is “very little”. Besides, the “stimulation of the activity of PITALRE by the cyclin subunit” value with RNA polymerase II [1] (phosphorylation of the CTD of RNA polymerase II) is listed as “approximately 100 fold”. In data set [2], the Transcription activity entry is reported as “none”.

With α-amanitin, the “elongation by all EECs” value on RNA polymerase II [3] was “inhibited”.
